Where only a bound is given, the exact number is not on record here.

Assay [1] relates to HCV replicon, genotype 1a L31V variant with leucine 31 changed to valine in the NS5A protein. It counts as cell-based. Particulars: genotype 1a L31V replicon; test compound titrated with compound N47 fixed at 200 nM versus titrated singly. (In general: Replicon systems follow genome replication, usually without infectious particles.)
Assay [2] relates to HCV replicon, genotype 1a Y93H variant with tyrosine 93 changed to histidine in the NS5A protein. It counts as cell-based. Conditions: genotype 1a Y93H replicon; test compound titrated with compound N47 fixed at 200 nM versus titrated singly. As for the experimental part:
Combinations can be examined for synergistic activity using a variety of putative NS5A-targeting compounds and a variety of test compounds. […] The test compound can be chosen from compounds exemplified below, which were prepared by methods known in the art, or from others disclosed in the literature.
Similarly, BMS-790052 can be tested singly and in combination with a fixed amount of compound N47 in the HCV replicon cell based assay consisting of the genotype 1a Y93H variant with tyrosine 93 changed to histidine in the NS5A protein.

As to `O=C(Cc1ccccc1)N1CCCC1c1nc2cc(-c3ccc4nc([C@@H]5CCCN5C(=O)Cc5ccccc5)[nH]c4c3)ccc2[nH]1` (stereo partly shown), in assay [1], the “Fold - Synergistic G-1a (L31V)” value is listed as under 10 Fold. Moreover, the “Fold - Synergistic G-1a (Y93H)” value in assay [2] is recorded as under 10 Fold.

For the molecule `CN(C)[C@@H](C(=O)N1CCC[C@H]1C1=NC(c2ccc(OCc3ccc(-c4c[nH]c([C@@H]5CCCN5C(=O)[C@@H](c5ccccc5)N(C)C)n4)cc3)cc2)CN1)c1ccccc1` (stereo partly shown), the “Fold - Synergistic G-1a (L31V)” value in assay [1] is given as under 10 Fold. Further, the “Fold - Synergistic G-1a (Y93H)” value in assay [2] was under 10 Fold.

For `COC(=O)N[C@H](C(=O)N1C(c2ncc(-c3ccc(-c4ccc(-c5cnc([C@@H]6CCC7CC7N6C(=O)[C@@H](NC(=O)OC)C(C)C)[nH]5)cc4)cc3)[nH]2)CCC2CC21)C(C)C` (stereo partly shown), the “Fold - Synergistic G-1a (L31V)” value in assay [1] is given as over 100 Fold. The “Fold - Synergistic G-1a (Y93H)” value in assay [2] is given as over 100 Fold.

Consider `COC(=O)N[C@H](C(=O)N1CCCC1c1nc2ccc(C#CC#Cc3ccc4nc([C@@H]5CCCN5C(=O)[C@@H](NC(=O)OC)C(C)C)[nH]c4c3)cc2[nH]1)C(C)C` (stereo partly shown), for which, in assay [1], the “Fold - Synergistic G-1a (L31V)” value is over 100 Fold. In assay [2], the “Fold - Synergistic G-1a (Y93H)” value is on record as over 10 Fold.

For the molecule `COC(=O)N[C@H](C(=O)N1[C@@H]2C[C@@H]2C[C@H]1C(=O)Nc1ccc(C23CCC4C5CC6(c7ccc(NC(=O)[C@@H]8C[C@H]9C[C@H]9N8C(=O)[C@@H](NC(=O)OC)C(C)C)cc7)CC4C(C2)C(C6)C5C3)cc1)C(C)C`, the “Fold - Synergistic G-1a (L31V)” value in assay [1] is listed as under 10 Fold. Moreover, in assay [2], the “Fold - Synergistic G-1a (Y93H)” value is under 10 Fold.

For `COC(=O)N[C@H](C(=O)N1CC[C@H](C)C1c1ncc(-c2ccc(-c3ccc(-c4cnc([C@@H]5[C@@H](C)CCN5C(=O)[C@@H](NC(=O)OC)C(C)C)[nH]4)cc3)cc2)[nH]1)C(C)C` (stereo partly shown), in assay [1], the “Fold - Synergistic G-1a (L31V)” value was over 100 Fold. The “Fold - Synergistic G-1a (Y93H)” value in assay [2] was over 100 Fold.

Turning to `COC(=O)N[C@H](C(=O)N1C2CC2CC[C@H]1c1ncc(-c2ccc(-c3ccc(-c4cnc([C@@H]5CCC6CC6N5C(=O)[C@@H](NC(=O)OC)C(C)C)[nH]4)cc3)cc2)[nH]1)C(C)C` (stereo partly shown), in assay [1], the “Fold - Synergistic G-1a (L31V)” value was over 100 Fold. Also, in assay [2], the “Fold - Synergistic G-1a (Y93H)” value is reported as over 100 Fold.

Take `COC(=O)N[C@@H](C(=O)N1CCCC1c1ncc(-c2ccc(-c3ccc(-c4cnc([C@@H]5CCCN5C(=O)[C@H]5CCCO5)[nH]4)cc3)cc2)[nH]1)c1ccccc1` (stereo partly shown): in assay [1], the “Fold - Synergistic G-1a (L31V)” value is recorded as under 10 Fold. Further, the “Fold - Synergistic G-1a (Y93H)” value in assay [2] is on record as under 10 Fold.

As for `COC(=O)N[C@H](C(=O)CN1[C@@H]2C[C@@H]2C[C@H]1c1nc2ccc3cc(C#Cc4ccc5c(ccc6nc([C@@H]7C[C@H]8C[C@H]8N7C(=O)[C@@H](NC(=O)OC)C(C)C)[nH]c65)c4)ccc3c2[nH]1)C(C)C`, the “Fold - Synergistic G-1a (L31V)” value in assay [1] is over 10 Fold. For the same molecule, in assay [2], the “Fold - Synergistic G-1a (Y93H)” value is over 10 Fold.

As to `COC(=O)N[C@H](C(=O)N1CCCC1c1nc2ccc(-c3ccc4cc(-c5ccc6nc([C@@H]7CCCN7C(=O)[C@@H](NC(=O)OC)C(C)C)[nH]c6c5)ccc4n3)cc2[nH]1)C(C)C` (stereo partly shown), in assay [1], the “Fold - Synergistic G-1a (L31V)” value is on record as over 10 Fold. Also, in assay [2], the “Fold - Synergistic G-1a (Y93H)” value is given as over 10 Fold.

As for `CN(C)[C@H](C(=O)N1CCCC[C@H]1c1ncc(-c2ccc(-c3ccc(-c4cnc([C@@H]5CCCCN5C(=O)[C@@H](c5ccccc5)N(C)C)[nH]4)cc3)cc2)[nH]1)c1ccccc1`, the “Fold - Synergistic G-1a (L31V)” value in assay [1] was under 10 Fold. For the same molecule, in assay [2], the “Fold - Synergistic G-1a (Y93H)” value is on record as over 10 Fold.

`COC(=O)N[C@H](C(=O)CN1C(c2ncc(-c3ccc(C#Cc4ccc5c(ccc6[nH]c([C@@H]7C[C@H]8C[C@H]8N7C(=O)[C@@H](NC(=O)OC)C(C)C)nc65)c4)cc3)[nH]2)C[C@H]2C[C@H]21)C(C)C` (stereo partly shown): in assay [1], the “Fold - Synergistic G-1a (L31V)” value is reported as under 10 Fold. In addition, the “Fold - Synergistic G-1a (Y93H)” value in assay [2] was over 10 Fold.

As for `COC(=O)N[C@H](C(=O)N1C[C@H](C)C[C@H]1c1ncc(-c2ccc(-c3ccc4cc(-c5cnc([C@@H]6C[C@@H](C)CN6C(=O)[C@@H](NC(=O)OC)C(C)C)[nH]5)ccc4c3)cc2)[nH]1)C(C)C`, in assay [1], the “Fold - Synergistic G-1a (L31V)” value was under 10 Fold. The “Fold - Synergistic G-1a (Y93H)” value in assay [2] was over 10 Fold.

As to `COC(=O)N[C@H](C(=O)N1CCCC1c1ncc(C#Cc2ccc3cc(C#Cc4cnc([C@@H]5CCCN5C(=O)[C@@H](NC(=O)OC)C(C)C)[nH]4)ccc3c2)[nH]1)C(C)C` (stereo partly shown), in assay [1], the “Fold - Synergistic G-1a (L31V)” value is recorded as over 10 Fold. Further, the “Fold - Synergistic G-1a (Y93H)” value in assay [2] was under 10 Fold.

Regarding `COC(=O)N[C@H](C(=O)N1[C@@H]2C[C@@H]2C[C@H]1c1ncc(-c2ccc(C#Cc3ccc(-c4cnc([C@@H]5C[C@H]6C[C@H]6N5C(=O)[C@@H](NC(=O)OC)C(C)C)[nH]4)cc3)cc2)[nH]1)C(C)C`, the “Fold - Synergistic G-1a (L31V)” value in assay [1] was under 10 Fold. The “Fold - Synergistic G-1a (Y93H)” value in assay [2] is over 10 Fold.

For `COC(=O)N[C@H](C(=O)N1CCCC1c1cn(-c2ccc(-c3ccc(-n4cnc([C@@H]5CCCN5C(=O)[C@@H](NC(=O)OC)C(C)C)c4)cc3)cc2)cn1)C(C)C` (stereo partly shown), the “Fold - Synergistic G-1a (L31V)” value in assay [1] is over 10 Fold. Besides, in assay [2], the “Fold - Synergistic G-1a (Y93H)” value is recorded as over 10 Fold.

In the case of `CC[C@H]1CC[C@@H](c2ncc(-c3ccc(-c4ccc(-c5cnc([C@@H]6CC[C@H](CC)N6C(=O)[C@@H](NC(=O)OC)C(C)C)[nH]5)cc4)cc3)[nH]2)N1C(=O)C(NC(=O)OC)C(C)C` (stereo partly shown), in assay [1], the “Fold - Synergistic G-1a (L31V)” value is listed as over 100 Fold. Further, in assay [2], the “Fold - Synergistic G-1a (Y93H)” value is recorded as over 100 Fold.

Regarding `COC(=O)N[C@H](C(=O)N1C2C[C@@H]2C[C@H]1c1ncc(-c2ccc(C#Cc3ccc(-c4cnc([C@@H]5C[C@H]6C[C@H]6N5C(=O)[C@@H](NC(=O)OC)C(C)C)[nH]4)cc3)cc2)[nH]1)C(C)C` (stereo partly shown), in assay [1], the “Fold - Synergistic G-1a (L31V)” value is under 10 Fold. The “Fold - Synergistic G-1a (Y93H)” value in assay [2] is on record as over 10 Fold.

Regarding `Cc1nc2cccc(-c3ncc(-c4ccc5nc([C@@H]6CCCN6C(=O)[C@@H](c6ccccc6)N(C)C)[nH]c5c4)o3)c2[nH]1`, the “Fold - Synergistic G-1a (L31V)” value in assay [1] was over 10 Fold.

Consider `COC(=O)N[C@H](C(=O)N1C(c2ncc(-c3ccc(-c4cc5cc(-c6c[nH]c([C@@H]7C[C@H]8C[C@H]8N7C(=O)[C@@H](NC(=O)OC)C7CCOCC7)n6)ccc5o4)cc3)[nH]2)C[C@H]2C[C@H]21)C1CCOCC1` (stereo partly shown), for which the “Fold - Synergistic G-1a (L31V)” value in assay [1] is reported as under 10 Fold. Besides, in assay [2], the “Fold - Synergistic G-1a (Y93H)” value is recorded as under 10 Fold.

In the case of `COC(=O)N[C@@H](C(=O)N1CCC[C@H]1c1nc2ccc(C3=NCC(c4ccc(N5CCOCC5)cc4)O3)cc2[nH]1)c1ccccc1` (stereo partly shown), the “Fold - Synergistic G-1a (L31V)” value in assay [1] is reported as under 10 Fold. For the same molecule, the “Fold - Synergistic G-1a (Y93H)” value in assay [2] is under 10 Fold.

Regarding `CN(C)[C@@H](C(=O)N1CCC[C@H]1C(=O)Nc1cccc(-c2ncc(-c3ccc4nc([C@@H]5CCCN5C(=O)[C@@H](c5ccccc5)N(C)C)[nH]c4c3)o2)c1)c1ccccc1`, the “Fold - Synergistic G-1a (Y93H)” value in assay [2] is recorded as 10 Fold.

As to `COC(=O)N[C@H](C(=O)N1C[C@@H](C)CC1c1ncc(-c2ccc(-c3ccc4cc(-c5cnc([C@@H]6C[C@H](C)CN6C(=O)[C@@H](NC(=O)OC)C(C)C)[nH]5)ccc4c3)cc2)[nH]1)C(C)C` (stereo partly shown), the “Fold - Synergistic G-1a (L31V)” value in assay [1] was under 10 Fold. For the same molecule, in assay [2], the “Fold - Synergistic G-1a (Y93H)” value is on record as over 10 Fold.

Turning to `COC(=O)N[C@H](C(=O)N1[C@H]2C[C@@]2(C)C[C@H]1c1ncc(-c2ccc(-c3ccc(-c4cnc([C@@H]5C[C@@H]6C[C@@H]6N5C(=O)[C@@H](NC(=O)OC)C(C)C)[nH]4)cc3)cc2)[nH]1)C(C)C`, in assay [1], the “Fold - Synergistic G-1a (L31V)” value is on record as over 100 Fold. For the same molecule, the “Fold - Synergistic G-1a (Y93H)” value in assay [2] is given as over 100 Fold.
